Read-outs that look alike come from different tables or passages of the source.
Tests used:
[1] = biological target: T1, HCV NS3/4A protease complex (BMS strain) (UniProt P27958, C1454S/C1711G, species not given); experiment: Recombinant HCV NS3/4A protease complex FRET peptide assay; format: biochemical, Hepatitis C virus (HCV), genotype 1a; conditions: NS3/4A BMS strain, activity range class
T1 construct: for H77 and J4L6S; fused on or other part: Three-lysine solubilising tail at the C-terminus of NS4A
Source text: Recombinant HCV NS3/4A Protease Complex FRET Peptide Assay
Serum from an HCV-infected patient was obtained from Dr. T. Wright, San Francisco Hospital. An engineered full-length cDNA (compliment deoxyribonucleic acid) template of the HCV genome (BMS strain) was constructed from DNA fragments obtained by reverse transcription-PCR (RT-PCR) of serum RNA (ribonucleic acid) and using primers selected on the basis of homology between other genotype 1a strains.
The H77 and J4L6S strains were used for production of recombinant NS3/4A protease complexes. […] Briefly, a three-lysine solubilizing tail was added at the 3′-end of the NS4A coding region. […] Briefly, the NS3/4A protease complex expression was induced with 0.5 millimolar (mM) Isopropyl β-D-1-thiogalactopyranoside (IPTG) for 22 hours (h) at 20° C. […] The cells were resuspended in lysis buffer (10 mL/g) consisting of 25 mM N-(2-Hydroxyethyl)piperazine-N′-(2-Ethane Sulfonic acid) (HEPES), pH 7.5, 20% glycerol, 500 mM Sodium Chloride (NaCl), 0.5% Triton X-100, 1 microgram/milliliter (“μg/mL”) lysozyme, 5 mM Magnesium Chloride (MgCl2), 1 μg/ml DnaseI, 5 mM β-Mercaptoethanol (βME), Protease inhibitor—Ethylenediamine Tetraacetic acid (EDTA) free (Roche), homogenized and incubated for 20 minutes (min) at 4° C. The homogenate was sonicated and clarified by ultra-centrifugation at 235000 g for 1 h at 4° C. Imidazole was added to the supernatant to a final concentration of 15 mM and the pH adjusted to 8.0. The crude protein extract was loaded on a Nickel—Nitrilotriacetic acid (Ni-NTA) column pre-equilibrated with buffer B (25 mM HEPES, pH 8.0, 20% glycerol, 500 mM NaCl, 0.5% Triton X-100, 15 mM imidazole, 5 mM βME). The sample was loaded at a flow rate of 1 mL/min. The column was washed with 15 column volumes of buffer C (same as buffer B except with 0.2% Triton X-100). The protein was eluted with 5 column volumes of buffer D (same as buffer C except with 200 mM Imidazole).
NS3/4A protease complex-containing fractions were pooled and loaded on a desalting column Superdex-S200 pre-equilibrated with buffer D (25 mM HEPES, pH 7.5, 20% glycerol, 300 mM NaCl, 0.2% Triton X-100, 10 mM βME). Sample was loaded at a flow rate of 1 mL/min. NS3/4A protease complex-containing fractions were pooled and concentrated to approximately 0.5 mg/ml.
The enzyme was stored at −80° C., thawed on ice and diluted prior to use in assay buffer. […] The sequence of this peptide is loosely based on the NS4A/NS4B natural cleavage site for the HCV NS3 protease except there is an ester linkage rather than an amide bond at the cleavage site. The peptide substrate was incubated with one of the three recombinant NS3/4A protease complexes, in the absence or presence of a compound of the present invention, and the formation of fluorescent reaction product was followed in real time using a Cytofluor Series 4000.
The reagents were as follow: HEPES and Glycerol (Ultrapure) were obtained from GIBCO-BRL. Dimethyl Sulfoxide (DMSO) was obtained from Sigma. β-Mercaptoethanol was obtained from Bio Rad.
Assay buffer: 50 mM HEPES, pH 7.5; 0.15 M NaCl; 0.1% Triton; 15% Glycerol; 10 mM βME. Substrate: 2 μM final concentration (from a 2 mM stock solution in DMSO stored at −20° C.). HCV NS3/4A protease type 1a (1b), 2–3 nM final concentration (from a 5 μM stock solution in 25 mM HEPES, pH 7.5, 20% glycerol, 300 mM NaCl, 0.2% Triton-X100, 10 mM βME).
The assay was performed in a 96-well polystyrene black plate from Falcon.

[2] = system: HCV replicon in Huh7 cells; experiment: microbe, parasite or virus in culture; format: cell-based, strain 1b; conditions: Hepatitis C virus, Huh-7, 96 h; Huh7 cells expressing HCV replicon, 4 days; activity range class
Source text: Generation of HCV Replicon
This system enabled us to evaluate the effects of our HCV Protease compounds on HCV RNA replication. Briefly, using the HCV strain 1b sequence described in the Lohmann paper (Assession number: AJ238799), an HCV cDNA was generated encoding the 5′ internal ribosome entry site (IRES), the neomycin resistance gene, the EMCV (encephalomyocarditis viurs)-IRES and the HCV nonstructural proteins, NS3-NS5B, and 3′ non-translated region (NTR). In vitro transcripts of the cDNA were transfected into the human hepatoma cell line, Huh7. […] Resulting cell lines were characterized for positive and negative strand RNA production and protein production over time.
Huh7 cells, constitutively expressing the HCV replicon, were grown in Dulbecco's Modified Eagle Media (DMEM) containing 10% Fetal calf serum (FCS) and 1 mg/ml G418 (Gibco-BRL). Cells were seeded the night before (1.5×10^4 cells/well) in 96-well tissue-culture sterile plates. Compound and no compound controls were prepared in DMEM containing 4% FCS, 1:100 Penicillin/Streptomysin, 1:100 L-glutamine and 5% DMSO in the dilution plate (0.5% DMSO final concentration in the assay). Compound/DMSO mixes were added to the cells and incubated for 4 days at 37° C. After 4 days, plates were rinsed thoroughly with Phosphate-Buffered Saline (PBS) (3 times 150 μl). The cells were lysed with 25 μl of a lysis assay reagent containing the FRET peptide (RET S1, as described for the in vitro enzyme assay). The lysis assay reagent was made from 5× cell Luciferase cell culture lysis reagent (Promega #E153A) diluted to 1× with distilled water, NaCl added to 150 mM final, the FRET peptide diluted to 10 μM final from a 2 mM stock in 100% DMSO. The plate was then placed into the Cytofluor 4000 instrument which had been set to 340 nm excitation/490 nm emission, automatic mode for 21 cycles and the plate read in a kinetic mode. EC50 determinations were carried out as described for the IC50 determinations. […]
The percentage inhibition was calculated using the formula below: […]
The values were graphed and analyzed using XLFit to obtain the EC50 value.

Row | SMILES | IC50 ([1]; read-out: IC50) [nM] | EC50 [2] [nM] | IC50 [1] [nM]
1 | C=C[C@@H]1C[C@]1(NC(=O)[C@@H]1C[C@@H](Oc2nccc3cc(OC)ccc23)CN1C(=O)[C@@H](NC(=O)OC(C)(C)C)C(C)(C)C)C(=O)NS(=O)(=O)C1(CCC)CC1 [Cmpd 302, (1-{4-(6-Methoxy-isoquinolin-1-yloxy)-2-[1-(1-propyl-cyclopropanesulfonylaminocarbonyl)-2-vinyl-cyclopropylcarbamoyl]-pyrrolidine-1-carbonyl}-2,2-dimethyl-propyl)-carbamic acid tert-butyl ester] | < 100 | < 100 | –
2 | C=C[C@@H]1C[C@]1(NC(=O)[C@@H]1C[C@@H](Oc2nccc3cc(OC)ccc23)CN1C(=O)[C@@H](NC(=O)OC(C)(C)C)C(C)(C)C)C(=O)NS(=O)(=O)C1(Cc2ccccc2)CC1 [Cmpd 303, {1-[2-[1-(1-Benzyl-cyclopropanesulfonylaminocarbonyl)-2-vinyl-cyclopropylcarbamoyl]-4-(6-methoxy-isoquinolin-1-yloxy)-pyrrolidine-1-carbonyl]-2,2-dimethyl-propyl}-carbamic acid tert-butyl ester] | 100 to 1000 | 100 to 1000 | –
3 | C=C[C@@H]1C[C@]1(NC(=O)[C@@H]1C[C@@H](Oc2nccc3cc(OC)ccc23)CN1C(=O)[C@@H](NC(=O)OC(C)(C)C)C(C)(C)C)C(=O)NS(=O)(=O)C1(Cl)CC1 [Cmpd 304, {1-[2-[1-(1-Chloro-cyclopropanesulfonylaminocarbonyl)-2-vinyl-cyclopropylcarbamoyl]-4-(6-methoxy-isoquinolin-1-yloxy)-pyrrolidine-1-carbonyl]-2,2-dimethyl-propyl}-carbamic acid tert-butyl ester] | < 100 | < 100 | –
4 | C=C[C@@H]1C[C@]1(NC(=O)[C@@H]1C[C@@H](Oc2nccc3ccccc23)CN1C(=O)[C@@H](NC(=O)OC(C)(C)C)C(C)(C)C)C(=O)NS(=O)(=O)C1(CC2CC2)CC1 [Cmpd 400] | – | 100 to 1000 | < 100
5 | C=C[C@@H]1C[C@]1(NC(=O)[C@@H]1C[C@@H](Oc2nccc3ccccc23)CN1C(=O)[C@@H](NC(=O)OC(C)(C)C)C(C)(C)C)C(=O)NS(=O)(=O)C1(Cc2ccccc2)CC1 [Cmpd 401] | – | 100 to 1000 | 100 to 1000
6 | C=C[C@@H]1C[C@]1(NC(=O)[C@@H]1C[C@@H](Oc2cc(-c3ccccc3)nc3c(C)noc23)CN1C(=O)[C@@H](NC(=O)OC(C)(C)C)C(C)(C)C)C(=O)NS(=O)(=O)C1(Cc2ccccc2)CC1 [Cmpd 500] | < 100 | 100 to 1000 | –
7 | C=C[C@@H]1C[C@]1(NC(=O)[C@@H]1C[C@@H](Oc2cc(-c3ccccc3)nc3c(C)noc23)CN1C(=O)[C@@H](NC(=O)OC(C)(C)C)C(C)(C)C)C(=O)NS(=O)(=O)C1(CCC)CC1 [Cmpd 501] | – | 100 to 1000 | < 100
8 | CCCC1(S(=O)(=O)NC(=O)[C@@]2(NC(=O)[C@@H]3C[C@@H](Oc4cc(-c5ccccc5)nc5c(C)noc45)CN3C(=O)[C@@H](NC(=O)OC(C)(C)C)C(C)(C)C)C[C@H]2CC)CC1 [Cmpd 502] | – | 100 to 1000 | 100 to 1000
9 | C=C[C@@H]1C[C@]1(NC(=O)C1C[C@@H](Oc2nc(-c3ccccc3)nc3ccccc23)CN1C(=O)[C@@H](NC(=O)OC(C)(C)C)C(C)(C)C)C(=O)NS(=O)(=O)C1(CC2CC2)CC1 (some centres unmarked) [Cmpd 600] | < 100 | < 100 | –
10 | C=C[C@@H]1C[C@]1(NC(=O)[C@@H]1C[C@@H](Oc2nc(-c3ccccc3)nc3ccccc23)CN1C(=O)[C@@H](NC(=O)OC(C)(C)C)C(C)(C)C)C(=O)NS(=O)(=O)C1(Cc2ccccc2)CC1 [Cmpd 601] | < 100 | 100 to 1000 | –
11 | C=C[C@@H]1C[C@]1(NC(=O)[C@@H]1C[C@@H](Oc2nc(-c3ccccc3)nc3ccccc23)CN1C(=O)[C@@H](N)C(C)(C)C)C(=O)NS(=O)(=O)C1(CC2CC2)CC1 [Cmpd 602] | 100 to 1000 | 1000 to 10000 | –
12 | C=C[C@@H]1C[C@]1(NC(=O)[C@@H]1C[C@@H](Oc2nc(-c3ccccc3)nc3ccccc23)CN1C(=O)[C@@H](NC(C)=O)C(C)(C)C)C(=O)NS(=O)(=O)C1(CC2CC2)CC1 [Cmpd 604] | < 100 | 100 to 1000 | –
13 | C=C[C@@H]1C[C@]1(NC(=O)[C@@H]1C[C@@H](Oc2nc(-c3ccccc3)nc3ccccc23)CN1C(=O)[C@@H](NC(=O)c1cnccn1)C(C)(C)C)C(=O)NS(=O)(=O)C1(CC2CC2)CC1 [Cmpd 605] | 100 to 1000 | 1000 to 10000 | –
14 | C=C[C@@H]1C[C@]1(NC(=O)[C@@H]1CC(Oc2ccnc(-c3cccs3)c2)CN1C(=O)[C@@H](NC(=O)OC1CCCC1)C(C)(C)C)C(=O)NS(=O)(=O)C1(CC2CC2)CC1 (some centres unmarked) [Cmpd 700] | < 100 | < 100 | –
15 | C=C[C@@H]1C[C@]1(NC(=O)[C@@H]1CC(Oc2ccnc(-c3cccs3)c2)CN1C(=O)[C@@H](NC(=O)OC1CCCC1)C(C)(C)C)C(=O)NS(=O)(=O)C1(Cc2ccccc2)CC1 (some centres unmarked) [Cmpd 701] | < 100 | 100 to 1000 | –
16 | C=C[C@@H]1C[C@]1(NC(=O)[C@@H]1C[C@@H](Oc2nccc3c(OC)cccc23)CN1C(=O)[C@@H](NC(=O)OC(C)(C)C)C(C)(C)C)C(=O)NS(=O)(=O)C1(CC)CC1 [Cpd 100] | – | < 100 | < 100
17 | C=C[C@@H]1C[C@]1(NC(=O)[C@@H]1C[C@@H](Oc2nccc3c(Cl)cccc23)CN1C(=O)[C@@H](NC(=O)OC(C)(C)C)C(C)(C)C)C(=O)NS(=O)(=O)C1(CC)CC1 [Cpd 101] | < 100 | < 100 | –
18 | C=C[C@@H]1C[C@]1(NC(=O)[C@@H]1C[C@@H](Oc2ncc(Cl)c3ccccc23)CN1C(=O)[C@@H](NC(=O)OC(C)(C)C)C(C)(C)C)C(=O)NS(=O)(=O)C1(CC)CC1 [Cpd 102] | – | 100 to 1000 | < 100
19 | C=C[C@@H]1C[C@]1(NC(=O)[C@@H]1C[C@@H](Oc2nccc3c(OC(F)(F)F)cccc23)CN1C(=O)[C@@H](NC(=O)OC(C)(C)C)C(C)(C)C)C(=O)NS(=O)(=O)C1(CC)CC1 [Cpd 103] | < 100 | 100 to 1000 | –
